# Columns and labels:
# [1] = test system: Candida albicans (CA) biofilm; experiment: Biofilm eradication model on silicone discs, time to complete eradication; assay type: cell-based; conditions: Table 2; disinfecting solutions pH 4.0-4.5; >120 = not completely eradicated within 120 minutes exposure
# MRSA biofilm = experiment: Modified Kuhn's model, quantitative time-to-kill biofilm eradication; assay type: cell-based, Staphylococcus aureus; conditions: 60 minutes exposure
# Protocol: In vitro antimicrobial assessments of PG, CAP, and PG+CAP solutions were conducted using an established time-to-kill biofilm eradication model, the modified Kuhn's model (Kuhn et al., 2002). Briefly, 1 cm diameter silicone discs, were placed into a 24-well tissue culture plate and incubated with donor human plasma at 37° C. for 24 hours. The plasma was then removed, replaced with 1 mL of 5.5×10^5 CFU of bacterial (MRSA, Pseudomonas aeruginosa) or yeast (Candida albicans) inocula and incubated at 37 C for an additional 24 hrs. Inoculum was removed and the discs were washed shaking at 100 rpm for 30 minutes in 0.9% sterile saline in order to remove any planktonic organisms. After washing, discs were exposed to 1 mL various disinfectant solutions and incubated at 37° C. for 30 min or 60 min. Saline flush solution was used a negative control. […] Resulting solutions were quantitatively cultured by plating 100 μL onto Muller-Hinton (for bacteria) or Sabouraud dextrose (for yeast) agar. […]
# Statistical analyses: The Kruskal-Wallis test was used to determine whether there was a significant difference in the medians in any of the lock solutions tested. Pairwise comparisons were assessed using the Mann-Whitney U test to […] performance of PG+CAP and CAP lock solutions at specified time points. […]
# [2] = test system: methicillin-resistant Staphylococcus aureus (MRSA) biofilm; experiment: Biofilm eradication model on silicone discs, time to complete eradication; assay type: cell-based; conditions: Table 2; disinfecting solutions pH 4.0-4.5; >120 = not completely eradicated within 120 minutes exposure
# [3] = test system: multidrug-resistant Pseudomonas aeruginosa (PS) biofilm; experiment: as above; assay type: cell-based; conditions: Table 2; disinfecting solutions pH 4.0-4.5; >120 = not completely eradicated within 120 minutes exposure
# [4] = CRC Handbook of Chemistry and Physics; cited from earlier work
# [5] = test system: Candida glabarata (CG) biofilm; experiment: Biofilm eradication model on silicone discs, time to complete eradication; assay type: cell-based; conditions: Table 2; disinfecting solutions pH 4.0-4.5; >120 = not completely eradicated within 120 minutes exposure
# [6] = test system: methicillin resistant Staphylococcus aureus (MRSA); experiment: Disinfection of colonized urinary catheter external surface, transient contact; assay type: cell-based; conditions: in 1.5% CMC solution; transient contact exposure of a few minutes; three 1 cm catheter segments
# [7] = test system: vancomycin resistant Enterococcus (VRE); experiment: as above; assay type: cell-based; conditions: in 1.5% CMC solution; transient contact exposure of a few minutes; three 1 cm catheter segments
# [8] = test system: Candida albicans (C. albicans); experiment: as above; assay type: cell-based; conditions: in 1.5% CMC solution; transient contact exposure of a few minutes; three 1 cm catheter segments
# [9] = test system: Escherichia coli (E. coli); experiment: as above; assay type: cell-based; conditions: in 1.5% CMC solution; transient contact exposure of a few minutes; three 1 cm catheter segments
structure (smiles),measurement,setting,value
"CCCCCCCC(=O)O [0.4% Caprylic Acid (CAP), caprylic acid (octanoic acid)]","time to complete biofilm eradication, CA",[1],120 min
same,reductions in viable cells in MRSA biofilm,MRSA biofilm,"able to reduce, but not completely eradicate"
same,"time to complete biofilm eradication, MRSA",[2],120 min
same,"time to complete biofilm eradication, PS",[3],60 min
same,pK of CAP,[4],approximately 4.8
same,"time to complete biofilm eradication, CG",[5],60 min
"OO [0.3% H2O2, hydrogen peroxide]","Median recoveries, MRSA",[6],0 CFU/cm of catheter
same,"Median recoveries, VRE",[7],">50,000 CFU/cm of catheter"
same,"Median recoveries, C. albicans",[8],">50,000 CFU/cm of catheter"
same,"Median recoveries, E. coli",[9],2700 CFU/cm of catheter
"O=[N+]([O-])OCC(CO[N+](=O)[O-])O[N+](=O)[O-] [0.03% nitroglycerin (GTN), glyceryl trinitrate]","time to complete biofilm eradication, CA",[1],>120 min
same,"time to complete biofilm eradication, MRSA",[2],>120 min
same,"time to complete biofilm eradication, PS",[3],>120 min
same,"time to complete biofilm eradication, CG",[5],>120 min

# Source: patent US11826332B2, “Antimicrobial compositions and uses thereof” (Board of Regents, The University of Texas System, priority 2016, dated 2023)
